Several values for one entry are separate records, joined by “and”; a condition that tells them apart may be missing. Identical values can stand only once.
Test: an = ratio of the nth substance listed
Conditions: 100 kPa, Liquid, Buoyancy - hydrostatic balance, a2 = 1.3

[F][Al]([F])[F] [aluminum fluoride] + [F-].[K+]
Conditions | mass density
1013.8 K | 1821 kg/m3
1014 K | 1822 kg/m3
1014.2 K | 1821 kg/m3
1014.4 K | 1822 kg/m3
1014.5 K | 1822 kg/m3
1014.9 K | 1821 kg/m3
1015.1 K | 1821 kg/m3
1015.2 K | 1820 kg/m3 and 1821 kg/m3
1015.3 K | 1822 kg/m3
1015.5 K | 1821 kg/m3
1015.7 K | 1820 kg/m3
1016.1 K | 1819 kg/m3
1016.3 K | 1820 kg/m3
1016.5 K | 1819 kg/m3
1016.7 K | 1819 kg/m3
1016.8 K | 1819 kg/m3
1017 K | 1818 kg/m3
1017.4 K | 1818 kg/m3
1017.8 K | 1819 kg/m3
1018 K | 1818 kg/m3
1018.1 K | 1818 kg/m3
1018.2 K | 1819 kg/m3
1018.4 K | 1819 kg/m3 and 1816 kg/m3
1018.5 K | 1818 kg/m3
1018.6 K | 1817 kg/m3
1018.9 K | 1816 kg/m3
1019.5 K | 1818 kg/m3
1019.7 K | 1816 kg/m3
1019.8 K | 1817 kg/m3
1019.9 K | 1817 kg/m3 and 1815 kg/m3 and 1816 kg/m3
1020.3 K | 1816 kg/m3
1020.5 K | 1815 kg/m3
1020.8 K | 1815 kg/m3
1021 K | 1816 kg/m3
1021.1 K | 1816 kg/m3
1021.2 K | 1814 kg/m3
1021.4 K | 1815 kg/m3
1021.7 K | 1816 kg/m3 and 1815 kg/m3
1022 K | 1813 kg/m3
1022.1 K | 1815 kg/m3
1022.6 K | 1815 kg/m3
1022.8 K | 1813 kg/m3
1022.9 K | 1812 kg/m3
1023 K | 1814 kg/m3
1023.1 K | 1814 kg/m3
1023.2 K | 1814 kg/m3
1023.4 K | 1813 kg/m3
1023.7 K | 1812 kg/m3
1024 K | 1813 kg/m3
1024.1 K | 1812 kg/m3
1024.4 K | 1812 kg/m3
1024.9 K | 1813 kg/m3 and 1811 kg/m3
1025 K | 1811 kg/m3
1025.2 K | 1813 kg/m3
1025.6 K | 1810 kg/m3
1025.7 K | 1810 kg/m3
1025.8 K | 1812 kg/m3
1026 K | 1812 kg/m3
1026.2 K | 1812 kg/m3
1026.4 K | 1810 kg/m3
1026.5 K | 1809 kg/m3
1026.6 K | 1810 kg/m3
1026.7 K | 1811 kg/m3
1026.9 K | 1809 kg/m3
1027.1 K | 1810 kg/m3
1027.2 K | 1808 kg/m3
1027.3 K | 1811 kg/m3
1027.4 K | 1808 kg/m3
1027.5 K | 1809 kg/m3
1027.9 K | 1809 kg/m3
1028 K | 1809 kg/m3
1028.1 K | 1809 kg/m3
1028.3 K | 1807 kg/m3
1028.6 K | 1807 kg/m3
1028.7 K | 1807 kg/m3
1028.9 K | 1808 kg/m3
1029.1 K | 1806 kg/m3
1029.3 K | 1807 kg/m3 and 1808 kg/m3
1029.4 K | 1807 kg/m3
1029.8 K | 1806 kg/m3
1030.3 K | 1806 kg/m3
1030.6 K | 1807 kg/m3 and 1806 kg/m3
1030.9 K | 1805 kg/m3
1031.1 K | 1806 kg/m3 and 1804 kg/m3
1031.5 K | 1804 kg/m3
1031.7 K | 1805 kg/m3 and 1806 kg/m3
1031.8 K | 1805 kg/m3
1032.3 K | 1803 kg/m3
1032.5 K | 1805 kg/m3
1032.6 K | 1803 kg/m3
1032.7 K | 1804 kg/m3
1032.9 K | 1804 kg/m3
1033.1 K | 1803 kg/m3
1033.3 K | 1803 kg/m3 and 1804 kg/m3
1033.5 K | 1803 kg/m3
1033.7 K | 1801 kg/m3 and 1802 kg/m3
1033.8 K | 1803 kg/m3
1033.9 K | 1804 kg/m3
1034.1 K | 1802 kg/m3
1034.5 K | 1801 kg/m3
1034.8 K | 1802 kg/m3 and 1801 kg/m3
1034.9 K | 1802 kg/m3
1035.3 K | 1801 kg/m3 and 1800 kg/m3
1035.6 K | 1800 kg/m3
1035.7 K | 1799 kg/m3
1036.4 K | 1799 kg/m3
1036.6 K | 1801 kg/m3 and 1798 kg/m3
1037 K | 1799 kg/m3
1037.1 K | 1801 kg/m3
1037.5 K | 1797 kg/m3
1037.7 K | 1798 kg/m3
1038.1 K | 1800 kg/m3 and 1797 kg/m3
1038.2 K | 1799 kg/m3
1038.4 K | 1796 kg/m3
1038.5 K | 1799 kg/m3
1038.6 K | 1799 kg/m3
1038.9 K | 1799 kg/m3
1039 K | 1796 kg/m3

From the NIST ThermoML archive (doi:10.1021/acs.jced.8b00157)
